Assay: HILIC, Waters ACQUITY UPLC BEH Amide, 100 × 2.1 mm, 1.7 µm; A: water + 0.125% formic acid + 10 mM ammonium formate; B: 5% water + 95% acetonitrile + 0.125% formic acid + 10 mM ammonium formate; gradient (min/%B) 0/100 2/100 7.7/70 9.5/40 10.25/30 12.75/100 17/100
Conditions: stereoisomer not certain

| SMILES | LC retention time [min] |
| --- | --- |
| Nc1nc(=O)n(C2OC(CO)C(O)C2O)cc1CO (stereo not drawn) [5-Hydroxymethylcytidine] | 7.54 |
| O=C(O)CC1C(=O)Nc2ccccc21 (stereo not drawn) [(2-oxo-2,3-dihydro-1H-indol-3-yl)acetic acid] | 2.02 |
| CC(C)CC(NC(=O)OCc1ccccc1)C(=O)O (stereo not drawn) [N-Carbobenzyloxyleucine] | 1.28 |
| CC(=O)NC(C)C(=O)O (stereo not drawn) [N-Acetylalanine] | 4.83 |
| COC1C=COC2(C)Oc3c(C)c(O)c4c(O)c(c5c(nc6cc(C)ccn65)c4c3C2=O)NC(=O)C(C)=CC=CC(C)C(O)C(C)C(O)C(C)C(OC(C)=O)C1C (stereo not drawn) [Rifaximin] | 1.18 |
| O=C(O)c1cc(O)ccc1O [Gentisinic acid] | 3.18 |
| CN(C)CCc1c[nH]c2ccc(CC3COC(=O)N3)cc12 (stereo not drawn) [Zolmitriptan] | 4.8 |
| NC(=O)C=CC(=O)O [Maleamic acid] | 1.12 |
| CN(C)c1nc2c(ncn2C2OC(CO)C(O)C2O)c(=O)[nH]1 (stereo not drawn) [N2,N2-Dimethylguanosine] | 5.62 |
| CC(=O)C1(O)Cc2c(O)c3c(c(O)c2C(OC2CC(N)C(O)C(C)O2)C1)C(=O)c1ccccc1C3=O (stereo not drawn) [Idarubicin] | 5.42 |
| NCCOP(=O)(O)O [O-Phosphocolamine] | 9.23 |
| CC(=O)NC(CCCN=C(N)N)C(=O)O [N-.alpha.-Acetyl-L-arginine] | 8.16 |
| CC(O)C(O)C1=Nc2c(nc(N)[nH]c2=O)NC1 (stereo not drawn) [7,8-Dihydrobiopterin] | 7.18 |
| CC(CCC(=O)NCCS(=O)(=O)O)C1CCC2C3C(O)CC4CC(O)CCC4(C)C3CC(O)C12C (stereo not drawn) [Taurocholic acid] | 6.12 |
| CN1CCC2(c3cccc(O)c3)Cc3nc4ccccc4cc3CC2C1 (stereo not drawn) | 5.11 |
| O=P(O)(O)OC1OC(CO)C(O)C(O)C1O (stereo not drawn) [Glucose-1-phosphate] | 9.61 |
| NC(=O)C(N)Cc1c[nH]c2ccccc12 (stereo not drawn) [Tryptophanamide] | 5.91 |
| CC(Oc1c(Cl)cccc1Cl)C1=NCCN1 (stereo not drawn) [Lofexidine] | 2.65 |
| N[C@H]1[C@@H](OP(=O)(O)O)O[C@H](CO)[C@H](O)[C@@H]1O [alpha-Galactosamine-1-phosphate] | 7.06 |
| O=C1CN2Cc3c(ccc(Cl)c3Cl)N=C2N1 [Anagrelide] | 1.82 |
| NC(CSCC(=O)O)C(=O)O (stereo not drawn) [Carbocysteine] | 9.04 |
| CC(=O)OCc1ccccc1 [Benzylacetate] | 8.71 |

| SMILES | LC retention time [min] |
| --- | --- |
| COc1cc(-c2ccc(=O)[nH]n2)ccc1OC(F)F [Zardaverine] | 1.19 |
| CCCC(N)C(=O)O (stereo not drawn) [Norvaline] | 4.89 |
| CSCCC(NC=O)C(=O)O (stereo not drawn) [N-Formylmethionine] | 3.93 |
| N=c1ccc2nc3ccc(N)cc3sc-2c1 [Thionin] | 5.23 |
| O=c1[nH]c(=S)ccn1C1OC(CO)C(O)C1O (stereo not drawn) [4-Thiouridine] | 2.27 |
| O=C1CN=C(c2ccccn2)c2cc(Br)ccc2N1 [Bromazepam] | 1.3 |
| Cn1c[n+](C2OC(CO)C(O)C2O)c2nc(N)[nH]c(=O)c21 (stereo not drawn) [7-Methylguanosine] | 7.34 |
| NC(CC(=O)O)C(=O)O (stereo not drawn) [Aspartic acid] | 9.33 |
| CC(C)CC(=O)NCC(=O)O [N-Isovalerylglycine] | 2.94 |
| NCC(O)c1ccccc1 (stereo not drawn) [Phenylethanolamine] | 5.51 |
| O=C(O)CNC(=O)c1ccco1 [N-(2-Furoyl)glycine] | 4.01 |
| CCOc1cc(N)c(Cl)cc1C(=O)NCC1CN(Cc2ccc(F)cc2)CCO1 (stereo not drawn) [Mosapride] | 1.24 |
| NC(CCSCC(N)C(=O)O)C(=O)O (stereo not drawn) [Cystathionine] | 9.91 |
| COC1C(O)CC(=O)OC(C)CC=CC=CC(O)C(C)CC(CC=O)C1OC1OC(C)C(OC2CC(C)(O)C(OC(=O)CC(C)C)C(C)O2)C(N(C)C)C1O (stereo not drawn) [Kitasamycin] | 2.04 |
| C[n+]1cccc(C(N)=O)c1 [1-Methylnicotinamide] | 6.26 |
| COc1ccc(NC=O)c(C(=O)CCNC(C)=O)c1 [N-gamma-Acetyl-N-2-formyl-5-methoxykynurenamine] | 1.32 |
| Cc1cn(C2C=CC(CO)O2)c(=O)[nH]c1=O (stereo not drawn) [Stavudine] | 1.62 |
| NC(Cc1ccc(OP(=O)(O)O)cc1)C(=O)O (stereo not drawn) [Phosphotyrosine] | 9.72 |
| COc1cc(-c2oc3cc(O)cc(O)c3c(=O)c2OC2OC(CO)C(O)C(O)C2O)ccc1O (stereo not drawn) [Isorhamnetin-3-glucoside] | 4.49 |
| O=C1N(c2ccccc2)c2ccccc2C1(Cc1ccncc1)Cc1ccncc1 [Linopirdine] | 1.17 |
| NCCc1ccccn1 [2-(2-Aminoethyl)pyridine] | 5.52 |
| NC(C(=O)NC1C(=O)N2C(C(=O)O)=C(CSc3cn[nH]n3)CSC12)c1ccc(O)cc1 (stereo not drawn) [Cefatrizine] | 7.98 |

| SMILES | LC retention time [min] |
| --- | --- |
| NC(CCC(=O)NC(CSSCC(N)C(=O)O)C(=O)NCC(=O)O)C(=O)O [L-Cysteine-glutathione disulfide] | 10.2 |
| CCCCCCCCCCCCCCCC(O)C(N)CO (stereo not drawn) [Dihydrosphingosine] | 4.47 |
| NCc1[nH]cc(CCC(=O)O)c1CC(=O)O [Porphobilinogen] | 7.4 |
| COc1cc(OC)c(C(=O)CCCN2CCCC2)c(OC)c1 [Buflomedil] | 2.34 |
| NC(=O)CCC(NC(=O)CCC(N)C(=O)O)C(=O)O (stereo not drawn) [gamma-Glutamylglutamine] | 9.55 |
| C#CC1(O)CCC2C3CCc4cc(O)ccc4C3CCC21C (stereo not drawn) [Ethynylestradiol] | 0.99 |
| Nc1ccccc1O [2-Aminophenol] | 1.22 |
| CSCC1OC(n2cnc3c(N)ncnc32)C(O)C1O (stereo not drawn) [5'-Methylthioadenosine] | 2.49 |
| O=C(O)C(=O)Cc1c[nH]c2ccccc12 [Indole-3-pyruvic acid] | 5.11 |
| CNS(=O)(=O)Cc1ccc2[nH]cc(CCN(C)C)c2c1 [Sumatriptan] | 4.31 |
| CC(CCC(=O)O)C1CCC2C3C(=O)CC4CC(=O)CCC4(C)C3CC(=O)C12C (stereo not drawn) [Dehydrocholic acid] | 1.16 |
| CN[C@@H](CCCCN)C(=O)O [N.alpha.-Methyl-L-lysine] | 7.35 |
| O=C(O)C=Cc1ccc(Cn2ccnc2)cc1 [Ozagrel] | 2.99 |
| CC(=O)NC(Cc1ccccc1)C(=O)O (stereo not drawn) [N-Acetylphenylalanine] | 2.61 |
| CCn1cc(C(=O)O)c(=O)c2cc(F)c(N3CCN(C)CC3)cc21 [Pefloxacin] | 3.65 |
| COc1cc(C(=O)O)cc(OC)c1O [Syringic acid] | 1.35 |
| Oc1ccc(C=Cc2cc(O)cc(O)c2)cc1 [Resveratrol] | 1.41 |
| COc1cc2nc(N(C)CCCNC(=O)C3CCCO3)nc(N)c2cc1OC (stereo not drawn) [Alfuzosin] | 4.29 |
| CC(=O)N[C@@H](CCCCN)C(=O)O [N.alpha.-Acetyl-L-lysine] | 8.15 |
| NC(N)=NCCCC(N)C(=O)NC(CO)C(=O)O (stereo not drawn) [Arg-Ser] | 9.9 |
| CNC(Cc1ccc(O)cc1)C(=O)O (stereo not drawn) [N-Methyltyrosine] | 6.79 |
| CN1CCC(=C2c3ccccc3CCc3sccc32)CC1 [Pizotifen] | 2.33 |

| SMILES | LC retention time [min] |
| --- | --- |
| CC(O)C(C)C(=O)O (stereo not drawn) [Methyl-3-hydroxybutyric acid] | 6.22 |
| C=C1CC2C(CCC3(C)C(=O)CCC23)C2(C)C=CC(=O)C=C12 (stereo not drawn) [Exemestane] | 0.98 |
| CN(Cc1cnc2nc(N)nc(N)c2n1)c1ccc(C(=O)NC(CCC(=O)O)C(=O)O)cc1 (stereo not drawn) [Methotrexate] | 7.67 |
| O=C(O)c1cc(=O)c2ccccc2[nH]1 [Kynurenic acid] | 6.15 |
| CCCCCC(=O)OC(CC(=O)[O-])C[N+](C)(C)C [Hexanoyl-L-carnitine] | 5.09 |
| CC1C(c2ccccc2)OCCN1C (stereo not drawn) [Phendimetrazine] | 2.52 |
| O=CCc1ccccc1 [Phenylacetaldehyde] | 5.4 |
| CC(C)C(NC(=O)C(N)CCCCN)C(=O)O (stereo not drawn) [Lys-Val] | 9.38 |
| NCC(=O)c1ccccc1 [2-Aminoacetophenone] | 1.08 |
| NC(N)=NCCCC(N)C(=O)O (stereo not drawn) [Arginine] | 9.53 |
| OCC1OC(Oc2cc(O)cc(C=Cc3ccc(O)cc3)c2)C(O)C(O)C1O (stereo not drawn) [trans-Piceid] | 4.64 |
| Nc1ccn(C2CC(O)C(COP(=O)(O)O)O2)c(=O)n1 (stereo not drawn) [2-Deoxycytidine-5-monophosphoric acid] | 9.16 |
| O=c1cc(-c2ccccc2)oc2ccc(O)cc12 [6-Hydroxyflavone] | 1.26 |
| CN1CCCC1c1cccnc1 (stereo not drawn) [Nicotine] | 5.34 |
| OCC1OC(OCC2OC(OC3(CO)OC(CO)C(O)C3O)C(O)C(O)C2O)C(O)C(O)C1O (stereo not drawn) [Raffinose] | 9.17 |
| CN=C(N)NCCCC(N)C(=O)O (stereo not drawn) [Targinine] | 9.22 |
| Cn1c(=O)[nH]c2[nH]c(=O)[nH]c2c1=O [1-Methyluric acid] | 2.18 |
| O=c1c(-c2ccccc2)c1-c1ccccc1 [Diphenylcyclopropenone] | 1.01 |
| CC(C)CC(NC(=O)CN)C(=O)O (stereo not drawn) [Glycyl-leucine] | 8.14 |
| COc1ccc(C(CN(C)C)C2(O)CCCCC2)cc1 (stereo not drawn) [Venlafaxine] | 2.44 |
| CC(=O)OC1CC2CCC3C(CCC4(C)C3CC([N+]3(C)CCCCC3)C4OC(C)=O)C2(C)CC1N1CCCCC1 (stereo not drawn) [Vercuronium] | 5.53 |
| CC(=O)NC1C(O)OC(CO)C(O)C1O (stereo not drawn) [N-Acetylmannosamine] | 7.01 |

— the RepoRT retention time repository
